Some results are limits rather than exact numbers.

One test deals with purified human Hsp90. In words: Binding Assay: fluorescence polarization with BODIPY-labeled geldanamycin. Particulars: 5 μM compound, BODIPY-GM 10 nM, Hsp90 30 nM. The procedure, abridged: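 Fluorescence polarization competition with BODIPY-geldanamycin (10 nM final) and human Hsp90 (30 nM final) in HEPES-KOH pH 7.3 buffer with molybdate, NP-40, DTT; 2% DMSO, overnight at room temperature. Read 485/530 nm; percent inhibition from mP normalized to DMSO controls, fluorescent-compound points excluded.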
In general terms: Polarisation of emitted light reports the rotation of a fluorescent probe.
Turning to `CC(C)NC(=O)N1CCCC(CCn2cnc(N)c3nc(Sc4cc5c(cc4Br)OCO5)nc2-3)C1` (centres unmarked) [Example 441, 3-(2-{6-Amino-8-[(6-bromo-1,3-benzodioxol-5-yl)thio]-3H-purin-3-yl}ethyl)-N-isopropylpiperidine-1-carboxamide], the % Inhibition (commonly the change of the read-out against control, counted positive when it falls) at 5 μM Compound Concentration was 45%.

Consider `COc1ccc(Sc2nc3c(N)ncn(CCC4CCN(C(C)=O)CC4)c-3n2)cc1F` [Example 568, 3-[2-(1-Acetylpiperidin-4-yl)ethyl]-8-[(3-fluoro-4-methoxyphenyl)thio]-3 H-purin-6-amine], for which the “% Inhibition at 5 μM Compound Concentration” value (“% Inhibition” below) is recorded as 0.00%. The same measure, in the same setting: with `Nc1ncn(CCn2cccc2)c2nc(Sc3ccc4c(c3)OCO4)nc1-2` [Example 50, 8-(benzo[1,3]dioxol-5-ylsulfanyl)-3-(2-pyrrol-1-yl-ethyl)-3H-purin-6-ylamine] the figure was 3%; with `COc1ccc(Sc2nc3c(N)ncn(CCc4ccccc4)c-3n2)c(OC)c1` [Example 16, 8-(2,4-dimethoxy-phenylsulfanyl)-3-phenethyl-3H-purin-6-ylamine], 6%. Take `CC(=O)N1CCC(CCn2cnc(N)c3nc(Sc4nc5ccc([N+](=O)[O-])cc5s4)nc2-3)CC1` [Example 652, 3-[2-(1-Acetylpiperidin-4-yl)ethyl]-8-[(6-nitro-1,3-benzothiazol-2-yl)thio]-3H-purin-6-amine]: the “% Inhibition” value was determined as 0.00%. On to `Nc1ncn(CCc2cccc(C(F)(F)F)c2)c2nc(Sc3cc4c(cc3Br)OCO4)nc1-2` [Example 166, 8-(6-Bromo-benzo[1,3]dioxol-5-ylsulfanyl)-3-[2-(3-trifluoromethyl-phenyl)-ethyl]-3H-purin-6-ylamine], for which the “% Inhibition” value worked out at 0%. On to `CC(C)NC(=O)N1CCC(CCn2cnc(N)c3nc(Sc4cc5c(cc4Br)OCO5)nc2-3)CC1` [Example 439, 4-(2-{6-Amino-8-[(6-bromo-1,3-benzodioxol-5-yl)thio]-3H-purin-3-yl}ethyl)-N-isopropylpiperidine-1-carboxamide], for which the “% Inhibition” value is reported as 24%. The same measure, in the same setting: the same measure for `COc1ccc(OC)c(Sc2nc3c(N)ncn(CCN4CCN(C5CCCC5)CC4)c-3n2)c1` [Example 495, 3-[2-(4-Cyclopentylpiperazin-1-yl)ethyl]-8-[(2,5-dimethoxyphenyl)thio]-3 H-purin-6-amine]: 6%. On the same count and under the same terms, the same measure for `COc1ccc(OC)c(Sc2nc3c(N)ncnc3n2CCn2cccc2)c1` [Example 65, 8-(2,5-Dimethoxy-phenylsulfanyl)-9-(2-pyrrol-1-yl-ethyl)-9H-purin-6-ylamine]: 61%. Take `Nc1ncnc2c1nc(Sc1cc3c(cc1Br)OCO3)n2CCc1cccc2ccccc12` [Example 157, 8-(6-Bromo-benzo[1,3]dioxol-5-ylsulfanyl)-9-(2-naphthalen-1-yl-ethyl)-9H-purin-6-ylamine]: the “% Inhibition” value is 58%. With `COc1ccc(OC)c(Sc2nc3c(N)ncn(CCc4cccs4)c-3n2)c1` [Example 200, 8-(2,5-dimethoxy-phenylsulfanyl)-3-(2-thiophen-2-yl-ethyl)-3H-purin-6-ylamine], the “% Inhibition” value is on record as 18%.

The same test, now with this note: BODIPY-GM 10 nM, Hsp90 30 nM.
With `COc1ccc(OC)c(Sc2nc3c(N)ncnc3n2CCN2CCN(C(C)C)CC2)c1` [Example 493, 8-[(2,5-Dimethoxyphenyl)thio]-9-[2-(4-isopropylpiperazin-1-yl)ethyl]-9 H-purin-6-amine], the IC50 – broadly, the concentration that inhibits the measured activity by half – was found to be 8900 nM.

The compound `COc1cc(Sc2nc3c(N)ncnc3n2CCCc2ccccc2)cc(OC)c1OC` [Example 47, 9-(3-Phenyl-propyl)-8-(3,4,5-trimethoxy-phenylsulfanyl)-9H-purin-6-ylamine] registered an IC50 of more than 10000 nM. The same measure, in the same setting: the same measure for `CC(C)(C)OC(=O)N1CCCC(CCn2c(Sc3cc4c(cc3Br)OCO4)nc3c(N)ncnc32)C1` (centres unmarked) [Example 346, tert-Butyl 3-(2-{6-amino-8-[(6-bromo-1,3-benzodioxol-5-yl)thio]-9H-purin-9-yl}ethyl)piperidine-1-carboxylate]: 325 nM; for `Nc1ncnc2c1nc(Sc1cc(OC(F)(F)F)ccc1OC1CCCC1)n2CCc1ccccc1` [Example 328, 8-{[2-(Cyclopentyloxy)-5-(trifluoromethoxy)phenyl]thio}-9-(2-phenylethyl)-9H-purin-6-amine]: more than 8000 nM. As to `CC(C)(C)OC(=O)N1CCCC[C@H]1C(=O)N1CCC(CCn2c(Sc3cc4c(cc3Br)OCO4)nc3c(N)ncnc32)CC1` [Example 732, tert-Butyl(2S)-2-{[4-(2-{6-amino-8-[(6-bromo-1,3-benzodioxol-5-yl)thio]-9H-purin-9-yl}ethyl)piperidin-1-yl]carbonyl}piperidine-1-carboxylate], the IC50 was more than 5000 nM. `Nc1ncnc2c1nc(Sc1cc(OCc3ccccc3)c(OCc3ccccc3)cc1Br)n2CCC1CCN(C=O)CC1` [Example 553, 4-[2-(6-Amino-8-{[4,5-bis (benzyloxy)-2-bromophenyl]thio}-9 H-purin-9-yl)ethyl]piperidine-1-carbaldehyde]: the IC50 was more than 5000 nM. Same read-out and setting: with `C[C@@H](N)C(=O)N1CCC(CCn2c(Sc3cc4c(cc3Br)OCO4)nc3c(N)ncnc32)CC1` [Example 746, 9-(2-{1-[(2R)-2-Aminopropanoyl]piperidin-4-yl}ethyl)-8-[(6-bromo-1,3-benzodioxol-5-yl)thio]-9H-purin-6-amine] the figure was 240 nM; with `Nc1ncnc2c1nc(Sc1cc3c(cc1Br)OCO3)n2CCN1C(=O)CCCC1=O` [Example 496, 1-(2-{6-Amino-8-[(6-bromo-1,3-benzodioxol-5-yl)thio]-9H-purin-9-yl}ethyl)piperidine-2,6-dione], 81 nM.

`Nc1ncnc2c1nc(Sc1cc3c(cc1Br)OCO3)n2CCC1CCN(C(=O)[C@@H](O)CO)CC1` [Example 771, (2S)-3-[4-(2-{6-amino-8-[(6-bromo-1,3-benzodioxol-5-yl)thio]-9H-purin-9-yl}ethyl)piperidin-1-yl]-3-oxopropane-1,2-diol]: the IC50 was 120 nM. The same measure, in the same setting: the same measure for `Nc1ncnc2c1nc(Sc1cc3c(cc1Br)OCO3)n2CCc1cccs1` [Example 203, 8-(6-Bromo-benzo[1,3]dioxol-5-ylsulfanyl)-9-(2-thiophen-2-yl-ethyl)-9H-purin-6-ylamine]: 90 nM; for `CC(C)(C)OC(=O)N1CCCC[C@H]1CCn1c(Sc2cc3c(cc2Br)OCO3)nc2c(N)ncnc21` [Example 416, tert-Butyl (2S)-2-(2-{6-amino-8-[(6-bromo-1,3-benzodioxol-5-yl)thio]-9H-purin-9-yl}ethyl)piperidine-1-carboxylate]: 200 nM; for `CCOC(=O)N1CCCCC1CCn1c(Sc2cc3c(cc2Br)OCO3)nc2c(N)ncnc21` (centres unmarked) [Example 339, Ethyl 2-(2-{6-amino-8-[(6-bromo-1,3-benzodioxol-5-yl)thio]-9H-purin-9-yl}ethyl)piperidine-1-carboxylate]: 115 nM. On the same count and under the same terms, the same measure for `COc1ccc(OC)c(Sc2nc3c(N)ncn(CCc4ccc(C)cc4)c-3n2)c1` [Example 24, 8-(2,5-dimethoxy-phenylsulfanyl)-3-(2-p-tolyl-ethyl)-3H-purin-6-ylamine]: more than 10000 nM. The compound `COc1ccc(OC)c(Sc2nc3c(N)ncnc3n2CCc2ccc(Cl)cc2)c1` [Example 248, 9-[2-(4-Chlorophenyl)ethyl]-8-[(2,5-dimethoxyphenyl)thio]-9H-purin-6-amine] displayed an IC50 of more than 5000 nM. The same measure, in the same setting: with `COc1ccc(OC)c(Sc2nc3c(N)ncnc3n2CCc2c(F)cccc2Cl)c1` [Example 122, 9-[2-(2-chloro-6-fluoro-phenyl)-ethyl]-8-(2,5-dimethoxy-phenylsulfanyl)-9H-purine-6-ylamine] the figure was 85 nM; with `CC(C)(C)NS(=O)(=O)c1ccc(CCn2c(Sc3cc4c(cc3Br)OCO4)nc3c(N)ncnc32)cc1` [Example 273, 4-(2-{6-Amino-8-[(6-bromo-1,3-benzodioxol-5-yl)thio]-9H-purin-9-yl}ethyl)-N-(tert-butyl)benzenesulfonamide], 1300 nM; with `COC(=O)[C@H](CCSC)NC(=O)N1CCCC(CCn2c(Sc3cc4c(cc3Br)OCO4)nc3c(N)ncnc32)C1` (stereo partly drawn) [Example 507, Methyl N-{[3-(2-{6-amino-8-[(6-bromo-1,3-benzodioxol-5-yl)thio]-9 H-purin-9-yl}ethyl)piperidin-1-yl]carbonyl}-L-methioninate], 405 nM. Still for that read-out and setting: the same measure for `CC(C)C[C@H](NC(=O)OC(C)(C)C)C(=O)N1CCCC(CCn2c(Sc3cc4c(cc3Br)OCO4)nc3c(N)ncnc32)C1` (stereo partly drawn) [Example 719, tert-Butyl((1S)-1-{[3-(2-{6-amino-8-[(6-bromo-1,3-benzodioxol-5-yl)thio]-9H-purin-9-yl}ethyl)piperidin-1-yl]carbonyl}-3-methylbutyl)carbamate]: 800 nM; for `CC(C)(C)OC(=O)N[C@H]1CC[C@@H](CCn2cnc(N)c3nc(Sc4cc5c(cc4Br)OCO5)nc2-3)CC1` [Example 399, tert-Butyl [cis-4-(2-{6-amino-8-[(6-bromo-1,3-benzodioxol-5-yl)thio]-3H-purin-3-yl}ethyl)cyclohexyl]carbamate]: 950 nM. `CC(=O)N1CCC(CCn2c(Sc3nc(C)c(C)s3)nc3c(N)ncnc32)CC1` [Example 654, 9-[2-(1-Acetylpiperidin-4-yl)ethyl]-8-[(4,5-dimethyl-1,3-thiazol-2-yl)thio]-9H-purin-6-amine] came in with an IC50 of 2000 nM.

Regarding `COc1ccc(OC)c(Sc2nc3c(N)ncnc3n2CCn2cccc2)c1` [Example 65, 8-(2,5-Dimethoxy-phenylsulfanyl)-9-(2-pyrrol-1-yl-ethyl)-9H-purin-6-ylamine], the IC50 was 500 nM. Against the preceding compound, the IC50 is about 4-fold lower. Still for that read-out and setting: with `Nc1ncnc2c1nc(Sc1cc3c(cc1Br)OCO3)n2CCc1cccc2ccccc12` [Example 157, 8-(6-Bromo-benzo[1,3]dioxol-5-ylsulfanyl)-9-(2-naphthalen-1-yl-ethyl)-9H-purin-6-ylamine] the figure was 500 nM; with `CC(C)(C)C(=O)N1CCC(CCn2c(Sc3cc4c(cc3Br)OCO4)nc3c(N)ncnc32)CC1` [Example 451, 8-[(6-Bromo-1,3-benzodioxol-5-yl)thio]-9-{2-[1-(2,2-dimethylpropanoyl)piperidin-4-yl]ethyl}-9H-purin-6-amine], 195 nM; with `CC(C)(C)OC(=O)NCC(=O)N1CCC(CCn2c(Sc3cc4c(cc3Br)OCO4)nc3c(N)ncnc32)CC1` [Example 705, tert-Butyl{2-[4-(2-{6-amino-8-[(6-bromo-1,3-benzodioxol-5-yl)thio]-9H-purin-9-yl}ethyl)piperidin-1-yl]-2-oxoethyl}carbamate], 80 nM.

The record behind these values is patent US7595401B2, “Therapeutic compounds and their use in cancer” (Myriad Pharmaceuticals, Inc., priority 2006, dated 2009).
